Twelve compounds from US9765105B2, “Macrolide compound” (Pulike Biological Engineering, Inc., priority 2013, dated 2017) can be followed below.

Common to all, as to test: in vitro susceptibility, MIC by mini broth dilution
Format in all cases: cell-based
(In general: Dilution methods test growth across graded concentrations, often in twofold steps.)

The test system of experiment [1] is Staphylococcus aureus CVCC26003. The settings on record: strain CVCC26003. In short, it runs like this: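 MICs were determined by mini broth dilution under NCCLS standards in CAMHB, using revived S. aureus CVCC26003 subcultured 20 h at 35° C. Compounds were two-fold serially diluted in DMSO across 11 wells, with duplicate rows. Bacterial suspension was diluted 1:200 in medium before inoculation.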

Experiment [2] concerns Actinobacillus pleuropneumoniae CVCC262. To be noted: strain CVCC262. In short, it runs like this: (§1)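 MICs determined by mini broth dilution per NCCLS (now CLSI) standards. Strains revived from −20° C, subcultured twice on solid medium at 35° C for 20 h; compounds two-fold serially diluted in DMSO over 11 gradients, duplicate rows, bacterial suspension diluted 1:200 in liquid medium.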

The test system of a further experiment is Haemophilus parasuis. In short, it runs like this: as §1
Experiment [3] relates to Pasteurella multocida CVCC399. The settings on record: strain CVCC399. In short, it runs like this: as §1
Experiment [4] relates to Streptococcus equines CVCC556. To be noted: strain CVCC556. An outline of the steps:
as §1

For `CC[C@H]1OC(=O)[C@H](C)[C@@H](O[C@H]2C[C@@](C)(OC)[C@](O)(CNc3cc(OC)cc(OC)c3)[C@H](C)O2)[C@H](C)[C@@H](O[C@@H]2O[C@H](C)C[C@H](N(C)C)[C@H]2O)[C@](C)(O)C[C@@H](C)NC[C@H](C)[C@@H](O)[C@]1(C)O` [syzx-76, (2R,3S,4R,5S,8R,10R,11R,12S,13S,14R)-13-[(2,6-dideoxy-3-C-methyl-3-O-methyl-4-C-[(3,5-dimethoxyphenyl-amino)-methyl]-α-L-ribopyranosyl)oxy]-2-ethyl-3,4,10-trihydroxy-3,5,8,10,12,14-hexamethyl-11-[[3,4,6-trideoxy-3-(dimethylamino)-β-D-xylo-hexopyranosy]oxy]-1-oxa-7-azacyclopentadecan-15-one], the “MIC values, Staphylococcus aureus CVCC26003” value in experiment [1] is 2 ug/mi. Further, the “MIC values, Actinobacillus pleuropneumoniae CVCC262” value in experiment [2] is 64 ug/mi. In the experiment on Haemophilus parasuis, the “MIC values, Haemophilus parasuis” value is recorded as 1 ug/mi. Further, in experiment [3], the “MIC values, Pasteurella multocida CVCC399” value came out at 4 ug/mi. The “MIC values, Streptococcus equines CVCC556” value in experiment [4] was 2 ug/mi.

For `CCCCCNC[C@]1(O)[C@H](C)O[C@@H](O[C@H]2[C@H](C)[C@@H](O[C@@H]3O[C@H](C)C[C@H](N(C)C)[C@H]3O)[C@](C)(O)C[C@@H](C)N(CCC)C[C@H](C)[C@@H](O)[C@](C)(O)[C@@H](CC)OC(=O)[C@@H]2C)C[C@@]1(C)OC` [syzx-147], the “MIC values, Staphylococcus aureus CVCC26003” value in experiment [1] was determined as 0.25 ug/mi. Moreover, the “MIC values, Actinobacillus pleuropneumoniae CVCC262” value in experiment [2] is recorded as 0.25 ug/mi. Besides, the “MIC values, Haemophilus parasuis” value in the experiment with Haemophilus parasuis is on record as 0.25 ug/mi. In addition, the “MIC values, Pasteurella multocida CVCC399” value in experiment [3] is 0.5 ug/mi. Further, in experiment [4], the “MIC values, Streptococcus equines CVCC556” value is 0.25 ug/mi.

Turning to `CCCCNC[C@]1(O)[C@H](C)O[C@@H](O[C@H]2[C@H](C)[C@@H](O[C@@H]3O[C@H](C)C[C@H](N(C)C)[C@H]3O)[C@](C)(O)C[C@@H](C)N(CCC)C[C@H](C)[C@@H](O)[C@](C)(O)[C@@H](CC)OC(=O)[C@@H]2C)C[C@@]1(C)OC` [syzx-102], the “MIC values, Staphylococcus aureus CVCC26003” value in experiment [1] was 0.25 ug/mi. Further, the “MIC values, Actinobacillus pleuropneumoniae CVCC262” value in experiment [2] is reported as 0.25 ug/mi. The “MIC values, Haemophilus parasuis” value against Haemophilus parasuis was 0.25 ug/mi. For the same compound, the “MIC values, Pasteurella multocida CVCC399” value in experiment [3] is reported as 0.5 ug/mi. In addition, the “MIC values, Streptococcus equines CVCC556” value in experiment [4] is on record as 0.25 ug/mi.

With `CC[C@H]1OC(=O)[C@H](C)[C@@H](O[C@H]2C[C@@](C)(OC)[C@](O)(CNCc3ccc(Cl)cc3)[C@H](C)O2)[C@H](C)[C@@H](O[C@@H]2O[C@H](C)C[C@H](N(C)C)[C@H]2O)[C@](C)(O)C[C@@H](C)NC[C@H](C)[C@@H](O)[C@]1(C)O` [syzx-20, (2R,3S,4R,5S,8R,10R,11R,12S,13S,14R)-13-[(2,6-dideoxy-3-C-methyl-3-O-methyl-4-C-[(4-chlorolbenzylamino)methyl]-α-L-ribopyranosyl)oxy]-2-ethyl-3,4,10-trihydroxy-3,5,8,10,12,14-hexamethyl-11-[[3,4,6-trideoxy-3-(dimethylamino)-β-D-xylo-hexopyranosy]oxy]-1-oxa-7-azacyclopentadecan-15-one], the “MIC values, Staphylococcus aureus CVCC26003” value in experiment [1] is given as “≦0.25 ug/mi”. For the same compound, the “MIC values, Actinobacillus pleuropneumoniae CVCC262” value in experiment [2] is 2 ug/mi. The “MIC values, Haemophilus parasuis” value in the experiment with Haemophilus parasuis was “≦0.25 ug/mi”. For the same compound, the “MIC values, Pasteurella multocida CVCC399” value in experiment [3] is recorded as 0.25 ug/mi. In addition, in experiment [4], the “MIC values, Streptococcus equines CVCC556” value is “≦0.25 ug/mi”.

With `CCCN1C[C@H](C)[C@@H](O)[C@](C)(O)[C@@H](CC)OC(=O)[C@H](C)[C@@H](O[C@H]2C[C@@](C)(OC)[C@](O)(CNCCCCl)[C@H](C)O2)[C@H](C)[C@@H](O[C@@H]2O[C@H](C)C[C@H](N(C)C)[C@H]2O)[C@](C)(O)C[C@H]1C` [syzx-175], the “MIC values, Staphylococcus aureus CVCC26003” value in experiment [1] was found to be 0.5 ug/mi. In addition, the “MIC values, Actinobacillus pleuropneumoniae CVCC262” value in experiment [2] was 0.25 ug/mi. Also, in the experiment with Haemophilus parasuis, the “MIC values, Haemophilus parasuis” value turned out to be 0.25 ug/mi. For the same compound, the “MIC values, Pasteurella multocida CVCC399” value in experiment [3] is 0.5 ug/mi. Further, the “MIC values, Streptococcus equines CVCC556” value in experiment [4] worked out at 0.5 ug/mi.

Regarding `CC[C@H]1OC(=O)[C@H](C)[C@@H](O[C@H]2C[C@@](C)(OC)[C@](O)(CNCC(O)c3ccccc3)[C@H](C)O2)[C@H](C)[C@@H](O[C@@H]2O[C@H](C)C[C@H](N(C)C)[C@H]2O)[C@](C)(O)C[C@@H](C)NC[C@H](C)[C@@H](O)[C@]1(C)O` (stereo partly drawn) [syzx-52, (2R,3S,4R,5S,8R,10R,11R,12S,13S,14R)-13-[(2,6-dideoxy-3-C-methyl-3-O-methyl-4-C-[(2-hydroxy-2-phenyl-ethylamino)-methyl]-α-L-ribopyranosyl)oxy]-2-ethyl-3,4,10-trihydroxy-3,5,8,10,12,14-hexamethyl-11-[[3,4,6-trideoxy-3-(dimethylamino)-β-D-xylo-hexopyranosy]oxy]-1-oxa-7-azacyclopentadecan-15-one], in experiment [1], the “MIC values, Staphylococcus aureus CVCC26003” value came to 0.5 ug/mi. Besides, in experiment [2], the “MIC values, Actinobacillus pleuropneumoniae CVCC262” value was determined as 32 ug/mi. In the experiment with Haemophilus parasuis, the “MIC values, Haemophilus parasuis” value is listed as “≦0.25 ug/mi”. Further, the “MIC values, Pasteurella multocida CVCC399” value in experiment [3] is reported as 0.5 ug/mi. Further, in experiment [4], the “MIC values, Streptococcus equines CVCC556” value came to 0.5 ug/mi.

On to `CCCN1C[C@H](C)[C@@H](O)[C@](C)(O)[C@@H](CC)OC(=O)[C@H](C)[C@@H](O[C@H]2C[C@@](C)(OC)[C@](O)(CNN3CCCCC3)[C@H](C)O2)[C@H](C)[C@@H](O[C@@H]2O[C@H](C)C[C@H](N(C)C)[C@H]2O)[C@](C)(O)C[C@H]1C` [syzx-206], for which the “MIC values, Staphylococcus aureus CVCC26003” value in experiment [1] is 0.5 ug/mi. Moreover, in experiment [2], the “MIC values, Actinobacillus pleuropneumoniae CVCC262” value was 0.25 ug/mi. The “MIC values, Haemophilus parasuis” value against Haemophilus parasuis is listed as 0.25 ug/mi. For the same compound, in experiment [3], the “MIC values, Pasteurella multocida CVCC399” value is 0.5 ug/mi. Besides, the “MIC values, Streptococcus equines CVCC556” value in experiment [4] is listed as 0.25 ug/mi.

As to `CCCN1C[C@H](C)[C@@H](O)[C@](C)(O)[C@@H](CC)OC(=O)[C@H](C)[C@@H](O[C@H]2C[C@@](C)(OC)[C@](O)(CNCCc3ccc(S(N)(=O)=O)cc3)[C@H](C)O2)[C@H](C)[C@@H](O[C@@H]2O[C@H](C)C[C@H](N(C)C)[C@H]2O)[C@](C)(O)C[C@H]1C` [syzx-161], the “MIC values, Staphylococcus aureus CVCC26003” value in experiment [1] amounted to 0.25 ug/mi. Moreover, the “MIC values, Actinobacillus pleuropneumoniae CVCC262” value in experiment [2] came to 0.25 ug/mi. The “MIC values, Haemophilus parasuis” value with Haemophilus parasuis is on record as 0.25 ug/mi. Further, in experiment [3], the “MIC values, Pasteurella multocida CVCC399” value is 0.5 ug/mi. In addition, the “MIC values, Streptococcus equines CVCC556” value in experiment [4] turned out to be 0.25 ug/mi.

Regarding `CC[C@H]1OC(=O)[C@H](C)[C@@H](O[C@H]2C[C@@](C)(OC)[C@](O)(CNc3ccc(Cl)cc3C)[C@H](C)O2)[C@H](C)[C@@H](O[C@@H]2O[C@H](C)C[C@H](N(C)C)[C@H]2O)[C@](C)(O)C[C@@H](C)NC[C@H](C)[C@@H](O)[C@]1(C)O` [syzx-97, (2R,3S,4R,5S,8R,10R,11R,12S,13S,14R)-13-[(2,6-dideoxy-3-C-methyl-3-O-methyl-4-C-[(2-methyl-4-chloro-phenyl-amino)-methyl]-α-L-ribopyranosyl)oxy]-2-ethyl-3,4,10-trihydroxy-3,5,8,10,12,14-hexamethyl-11-[[3,4,6-trideoxy-3-(dimethylamino)-β-D-xylo-hexopyranosy]oxy]-1-oxa-7-azacyclopentadecan-15-one], in experiment [1], the “MIC values, Staphylococcus aureus CVCC26003” value is listed as 1 ug/mi. In experiment [2], the “MIC values, Actinobacillus pleuropneumoniae CVCC262” value was determined as 128 ug/mi. Further, in the experiment on Haemophilus parasuis, the “MIC values, Haemophilus parasuis” value is on record as 1 ug/mi. The “MIC values, Pasteurella multocida CVCC399” value in experiment [3] is given as 4 ug/mi. In addition, the “MIC values, Streptococcus equines CVCC556” value in experiment [4] came out at 0.5 ug/mi.

For the compound `CC[C@H]1OC(=O)[C@H](C)[C@@H](O[C@H]2C[C@@](C)(OC)[C@](O)(CNc3ccc(F)cn3)[C@H](C)O2)[C@H](C)[C@@H](O[C@@H]2O[C@H](C)C[C@H](N(C)C)[C@H]2O)[C@](C)(O)C[C@@H](C)NC[C@H](C)[C@@H](O)[C@]1(C)O` [syzx-86, (2R,3S,4R,5S,8R,10R,11R,12S,13S,14R)-13-[(2,6-dideoxy-3-C-methyl-3-O-methyl-4-C-[(5-fluoropyridin-2-yl-amino)-methyl]-α-L-ribopyranosyl)oxy]-2-ethyl-3,4,10-trihydroxy-3,5,8,10,12,14-hexamethyl-11-[[3,4,6-trideoxy-3-(dimethylamino)-β-D-xylo-hexopyranosy]oxy]-1-oxa-7-azacyclopentadecan-15-one], in experiment [1], the “MIC values, Staphylococcus aureus CVCC26003” value is recorded as “≦0.25 ug/mi”. For the same compound, in experiment [2], the “MIC values, Actinobacillus pleuropneumoniae CVCC262” value is 2 ug/mi. In addition, the “MIC values, Haemophilus parasuis” value against Haemophilus parasuis is given as “≦0.25 ug/mi”. The “MIC values, Pasteurella multocida CVCC399” value in experiment [3] is given as 0.25 ug/mi. Besides, in experiment [4], the “MIC values, Streptococcus equines CVCC556” value is on record as “≦0.25 ug/mi”.

As to `CCCN1C[C@H](C)[C@@H](O)[C@](C)(O)[C@@H](CC)OC(=O)[C@H](C)[C@@H](O[C@H]2C[C@@](C)(OC)[C@](O)(CNCCc3c[nH]c4ccccc34)[C@H](C)O2)[C@H](C)[C@@H](O[C@@H]2O[C@H](C)C[C@H](N(C)C)[C@H]2O)[C@](C)(O)C[C@H]1C` [syzx-174], the “MIC values, Staphylococcus aureus CVCC26003” value in experiment [1] was 4 ug/mi. For the same compound, the “MIC values, Actinobacillus pleuropneumoniae CVCC262” value in experiment [2] stood at 4 ug/mi. The “MIC values, Haemophilus parasuis” value against Haemophilus parasuis came out at 2 ug/mi. For the same compound, the “MIC values, Pasteurella multocida CVCC399” value in experiment [3] stood at 8 ug/mi. For the same compound, in experiment [4], the “MIC values, Streptococcus equines CVCC556” value came out at 0.25 ug/mi.

As for `CCCN1C[C@H](C)[C@@H](O)[C@](C)(O)[C@@H](CC)OC(=O)[C@H](C)[C@@H](O[C@H]2C[C@@](C)(OC)[C@](O)(CNc3ccc(Cl)cn3)[C@H](C)O2)[C@H](C)[C@@H](O[C@@H]2O[C@H](C)C[C@H](N(C)C)[C@H]2O)[C@](C)(O)C[C@H]1C` [syzx-211], in experiment [1], the “MIC values, Staphylococcus aureus CVCC26003” value was 2 ug/mi. Further, the “MIC values, Actinobacillus pleuropneumoniae CVCC262” value in experiment [2] is 4 ug/mi. The “MIC values, Haemophilus parasuis” value with Haemophilus parasuis was determined as 4 ug/mi. For the same compound, the “MIC values, Pasteurella multocida CVCC399” value in experiment [3] was determined as 8 ug/mi. In experiment [4], the “MIC values, Streptococcus equines CVCC556” value amounted to 0.5 ug/mi.
